Test results published in ChEMBL document CHEMBL3217583, “The MEP pathway and the development of inhibitors as potential anti-infective agents” (Medchemcomm, 2012).

Legend:
[1] = Inhibition of Escherichia coli IspF by fluorescence titration assay
[2] = Inhibition of Escherichia coli IspE
[3] = molecular target: 2-C-methyl-D-erythritol 2,4-cyclodiphosphate synthase (Mycobacterium tuberculosis (strain ATCC 25618 / H37Rv), UniProt P9WKG5); experiment: Inhibition of Mycobacterium tuberculosis H37Rv IspF expressed in Escherichia coli XL1-Blue measured for 30 mins by photometric plate reader analysis
2-C-methyl-D-erythritol 2,4-cyclodiphosphate synthase, sequence (P9WKG5 whole entry): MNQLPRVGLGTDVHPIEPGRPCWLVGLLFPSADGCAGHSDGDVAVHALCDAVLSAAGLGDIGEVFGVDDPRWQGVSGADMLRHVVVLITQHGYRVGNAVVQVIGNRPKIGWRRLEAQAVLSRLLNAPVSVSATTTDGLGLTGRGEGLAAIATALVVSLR

[4] = Inhibition of recombinant Plasmodium falciparum IspF measured for 30 mins by photometric plate reader analysis
[5] = Inhibition of Aquifex aeolicus IspH expressed in Escherichia coli BL21(DE3) using HMBPP as substrate preincubated for 10 mins followed by substrate addition
[6] = Inhibition of IspD (unknown origin)
[7] = Inhibition of Escherichia coli IspC
[8] = Inhibition of Escherichia coli IspE by CDP-ME-coupled photometric analysis
[9] = Inhibition of Chlamydomonas DXS
[10] = Inhibition of Escherichia coli DXS
[11] = Inhibition of recombinant Pseudomonas aeruginosa DXS expressed in Escherichia coli by spectrophotometric analysis
[12] = Inhibition of Aquifex aeolicus IspH expressed in Escherichia coli BL21(DE3)
[13] = Competitive inhibition of Escherichia coli IspG expressed in Escherichia coli BL21(DE3) using MEcPP as substrate preincubated for 10 mins followed by substrate addition by Michaelis-Menten equation analysis
[14] = molecular target: T1, 2-C-methyl-D-erythritol 4-phosphate cytidylyltransferase, chloroplastic (Arabidopsis thaliana, UniProt P69834); experiment: Inhibition of Arabidopsis thaliana IspD
T1 sequence (P69834 whole entry): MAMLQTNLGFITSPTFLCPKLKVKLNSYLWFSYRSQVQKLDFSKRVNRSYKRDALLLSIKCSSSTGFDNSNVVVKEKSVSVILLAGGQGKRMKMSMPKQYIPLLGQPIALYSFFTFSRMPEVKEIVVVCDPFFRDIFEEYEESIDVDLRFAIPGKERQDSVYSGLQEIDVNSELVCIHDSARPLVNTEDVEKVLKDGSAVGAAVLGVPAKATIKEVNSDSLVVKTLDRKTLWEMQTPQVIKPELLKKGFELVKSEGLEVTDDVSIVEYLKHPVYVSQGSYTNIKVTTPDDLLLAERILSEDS

[15] = Inhibition of Escherichia coli IspF

Question: With CN(C)c1cccc2c(S(=O)(=O)NCCOP(=O)(O)OP(=O)(O)OC[C@H]3O[C@@H](n4ccc(N)nc4=O)[C@H](O)[C@@H]3O)cccc12 as the compound, how does the IC50 [1] read?
Answer: 3000 µM

Question: With CCS(=O)(=O)NCC#Cc1cn(C2CCCS2)c(=O)nc1N (stereo unspecified) as the compound, how does the IC50 [2] read?
Answer: 6 µM

Question: Which IC50 [3] does the source give for CCOC(=O)C1=C(C)N=c2s/c(=C\c3cc(Br)c(O)c(Br)c3)c(=O)n2C1c1cccs1 (stereo unspecified) here?
Answer: 6.1 µM

Question: What about the IC50 [4] of the same compound?
Answer: 9.6 µM

Question: Which IC50 [5] does the source give for C#CCCOP(=O)(O)OP(=O)(O)O [BUT-3-YNYL DIPHOSPHATE] here?
Answer: 0.45 µM

Question: For O=P(O)(O)OC[C@@H](O)[C@@H](O)CO, which IC50 [6] is on record?
Answer: 1360 µM

Question: With CC(=O)N(O)CCCP(=O)(O)O as the compound, how does the IC50 [7] read?
Answer: 0.05 µM

Question: Which IC50 [8] does the source give for Nc1ccn([C@@H]2O[C@H](CNC(=O)CCc3nc4ccccc4[nH]3)[C@@H](O)[C@H]2O)c(=O)n1 here?
Answer: 1670 µM

Question: With CC1(C)C(=O)ON(Cc2ccccc2Cl)C1=O [KETOCLOMAZONE] as the compound, how does the IC50 [9] read?
Answer: 100 µM

Question: With O=C(O)C(=O)CF as the compound, how does the IC50 [10] read?
Answer: 80 µM

Question: What about the IC50 [11] of the same compound?
Answer: 400 µM

Question: Which IC50 [7] does the source give for O=CN(O)CCCP(=O)(O)O [FOSMIDOMYCIN] here?
Answer: 0.035 µM

Question: For O=P(O)(O)OP(=O)(O)OCCc1cccnc1 [PYRIDIN-3-YL-ETHYL-DIPHOSPHATE], which IC50 [12] is on record?
Answer: 9.1 µM

Question: For C#CCOP(=O)(O)OP(=O)(O)O [PROP-2-YNYL DIPHOSPHATE], which IC50 [13] is on record?
Answer: 0.75 µM

Question: For Oc1c(Cc2ccccc2)c(Cl)nc2ncnn12, which IC50 [14] is on record?
Answer: 0.14 µM

Question: With Nc1ccn(Cc2ccc(CNC(=O)c3ccccc3)c3ccccc23)c(=O)n1 as the compound, how does the IC50 [15] read?
Answer: 450 µM
